Measured values taken from patent US10543212B2, “Substituted amines for treating cardiac diseases” (Cardurion Pharmaceuticals, LLC, priority 2017, dated 2020).

Biological target: T1, Full-length, GST-tagged, human CaMKIIδ (Homo sapiens, UniProt Q13557)
T1 construct: Full-Length, Glutathione-S-Transferase(GST)-Tagged, Human CaMKIIδ was purchased from Carna Biosciences; purchased Carna Biosciences 02-111
Assay: CaMKIIδ binding assay (TR-FRET with BODIPY-labeled probe ligand)
Procedure, shortened: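 Compounds were tested as 4-fold, eight-point series for 1 hr at room temperature, and IC50 was obtained by logistic fitting against a 3 μM parent-compound control. Signal came from displacement of a 300 nM BODIPY ligand from 0.5 nM GST-CaMKIIδ, detected via Tb-anti-GST in calmodulin/Ca2+ (pH 7.6).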

[1] = CaMKIIδ binding assay, activity class per Table 2
[2] = Table 2, CaMKIIδ binding assay, activity given as class A/B/C
[3] = CaMKIIδ binding assay, results of Table 2
[4] = Table 2, activity class for CaMKIIδ

T1 sequence (Q13557 1-478 isoform Q13557-12): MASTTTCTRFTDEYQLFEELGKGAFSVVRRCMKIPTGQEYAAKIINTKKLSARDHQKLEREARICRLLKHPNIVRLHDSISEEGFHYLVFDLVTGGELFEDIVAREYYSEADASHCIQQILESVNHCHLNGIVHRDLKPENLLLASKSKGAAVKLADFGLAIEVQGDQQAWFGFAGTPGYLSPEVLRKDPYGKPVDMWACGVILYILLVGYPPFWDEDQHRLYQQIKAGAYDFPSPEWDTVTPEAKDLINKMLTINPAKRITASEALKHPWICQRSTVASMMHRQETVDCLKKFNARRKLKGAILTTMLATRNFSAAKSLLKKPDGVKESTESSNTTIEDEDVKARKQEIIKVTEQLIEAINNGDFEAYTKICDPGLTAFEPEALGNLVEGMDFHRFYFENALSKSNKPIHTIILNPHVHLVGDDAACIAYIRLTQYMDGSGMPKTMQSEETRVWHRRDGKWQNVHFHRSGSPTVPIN

CCC1(N2CC3(CC(n4cc(Nc5ncc(-c6ccc(Cl)c(O[C@@H](C)Cn7cnnn7)c6)cn5)c(OCC(F)(F)F)n4)C3)C2)CCOCC1 [Example 955, (S)-5-(3-((1-(1H-tetrazol-1-yl)propan-2-yl)oxy)-4-chlorophenyl)-N-(1-(2-(4-ethyltetrahydro-2H-pyran-4-yl)-2-azaspiro[3.3]heptan-6-yl)-3-(2,2,2-trifluoroethoxy)-1H-pyrazol-4-yl)pyrimidin-2-amine]
IC50 [1]: < 10 nM

C[C@@H](Cn1cnnn1)Oc1cc(-c2cnc(Nc3cn([C@H]4C[C@H](N5CCOCC5)C4)nc3OCC(F)(F)F)nc2)ccc1Cl [Example 943, 5-(3-(((S)-1-(1H-tetrazol-1-yl)propan-2-yl)oxy)-4-chlorophenyl)-N-(1-(trans-3-morpholinocyclobutyl)-3-(2,2,2-trifluoroethoxy)-1H-pyrazol-4-yl)pyrimidin-2-amine]
IC50 [1]: < 10 nM

C[C@@H](Cn1cnnn1)Oc1cc(-c2cnc(Nc3cn(C4CCN(C)CC4)nc3OCC(F)F)nc2)ccc1Cl [Example 793, (S)-5-(3-((1-(1H-tetrazol-1-yl)propan-2-yl)oxy)-4-chlorophenyl)-N-(3-(2,2-difluoroethoxy)-1-(1-methylpiperidin-4-yl)-1H-pyrazol-4-yl)pyrimidin-2-amine]
IC50 [2]: < 10 nM

COc1ccc(N2CCN(CC(N)=O)CC2)cc1Nc1ncc(-c2ccc(Cl)c(O[C@@H](C)Cn3cnnn3)c2)cn1 [Example 579, (S)-2-(4-(3-((5-(3-((1-(1H-tetrazol-1-yl)propan-2-yl)oxy)-4-chlorophenyl)pyrimidin-2-yl)amino)-4-methoxyphenyl)piperazin-1-yl)acetamide]
IC50 [3]: < 10 nM

C[C@@H](Cn1cnnn1)Oc1cc(-c2cnc(Nc3cn(C4CC5(C4)CN(C4(C)CCOCC4)C5)nc3OCC(F)(F)F)nc2)ccc1Cl [Example 937, (S)-5-(3-((1-(1H-tetrazol-1-yl)propan-2-yl)oxy)-4-chlorophenyl)-N-(1-(2-(4-methyltetrahydro-2H-pyran-4-yl)-2-azaspiro[3.3]heptan-6-yl)-3-(2,2,2-trifluoroethoxy)-1H-pyrazol-4-yl)pyrimidin-2-amine]
IC50 [1]: < 10 nM

Cc1cc(Nc2ncc(-c3ccc(Cl)c(O[C@@H](C)Cn4cnnn4)c3)cn2)n(-c2ccccn2)n1 [Example 660, (S)-5-(3-((1-(1H-tetrazol-1-yl)propan-2-yl)oxy)-4-chlorophenyl)-N-(3-methyl-1-(pyridin-2-yl)-1H-pyrazol-5-yl)pyrimidin-2-amine]
IC50 [4]: ≥ 100 nM

CC(Cn1cnnn1)Oc1cc(-c2cnc(Nc3cn(CC4(O)CCC(O)CC4)nc3OCC(F)(F)F)nc2)ccc1Cl [Example 907, cis-1-((4-((5-(3-(((S)-1-(1H-tetrazol-1-yl)propan-2-yl)oxy)-4-chlorophenyl)pyrimidin-2-yl)amino)-3-(2,2,2-trifluoroethoxy)-1H-pyrazol-1-yl)methyl)cyclohexane-1,4-diol]
IC50 [1]: < 10 nM

COc1nc(N2CCCNCC2)ccc1Nc1ncc(-c2ccc(Cl)c(O[C@@H](C)Cn3cnnn3)c2)cn1 [Example 666, (S)-N-(6-(1,4-diazepan-1-yl)-2-methoxypyridin-3-yl)-5-(3-((1-(1H-tetrazol-1-yl)propan-2-yl)oxy)-4-chlorophenyl)pyrimidin-2-amine]
IC50 [4]: < 10 nM

C[C@@H](Cn1cnnn1)Oc1cc(-c2cnc(Nc3cn(C4CCN(Cc5nccs5)CC4)nc3C(F)(F)F)nc2)ccc1Cl [Example 551, (S)-5-(3-((1-(1H-tetrazol-1-yl)propan-2-yl)oxy)-4-chlorophenyl)-N-(1-(1-(thiazol-2-ylmethyl)piperidin-4-yl)-3-(trifluoromethyl)-1H-pyrazol-4-yl)pyrimidin-2-amine]
IC50 [3]: 10 to 100 nM

CCn1ncc(Nc2ncc(-c3ccc(Cl)c(O[C@@H](C)Cn4cnnn4)c3)cn2)c1C(=O)O [Example 875, (S)-4-((5-(3-((1-(1H-tetrazol-1-yl)propan-2-yl)oxy)-4-chlorophenyl)pyrimidin-2-yl)amino)-1-ethyl-1H-pyrazole-5-carboxylic acid]
IC50 [2]: 10 to 100 nM

C[C@@H](Cn1cnnn1)Oc1cc(-c2cnc(Nc3cn([C@H]4CC[C@H](N5CCOCC5)CC4)nc3OC[C@@H]3CC3(F)F)nc2)ccc1Cl [Example 869]
IC50 [2]: < 10 nM

Cc1c(Nc2ncc(-c3ccc(Cl)c(O[C@@H](C)Cn4cnnn4)c3)cn2)cnn1C [Example 731, (S)-5-(3-((1-(1H-tetrazol-1-yl)propan-2-yl)oxy)-4-chlorophenyl)-N-(1,5-dimethyl-1H-pyrazol-4-yl)pyrimidin-2-amine]
IC50 [4]: 10 to 100 nM

COc1ccc(-n2cc(Nc3ncc(-c4ccc(Cl)c(O[C@@H](C)Cn5cnnn5)c4)cn3)c(OCC(F)(F)F)n2)cn1 [Example 901, (S)-5-(3-((1-(1H-tetrazol-1-yl)propan-2-yl)oxy)-4-chlorophenyl)-N-(1-(6-methoxypyridin-3-yl)-3-(2,2,2-trifluoroethoxy)-1H-pyrazol-4-yl)pyrimidin-2-amine]
IC50 [1]: 10 to 100 nM

COc1cc2c(cc1Nc1ncc(-c3ccc(Cl)c(O[C@@H](C)Cn4cnnn4)c3)cn1)NCCC2 [Example 591, (S)-N-(5-(3-((1-(1H-tetrazol-1-yl)propan-2-yl)oxy)-4-chlorophenyl)pyrimidin-2-yl)-6-methoxy-1,2,3,4-tetrahydroquinolin-7-amine]
IC50 [4]: < 10 nM

C[C@@H](Cn1cnnn1)Oc1cc(-c2cnc(Nc3cn([C@H]4CC[C@@H](N5CCC5)CC4)nc3C(F)(F)F)nc2)ccc1C#N [Example 773, 2-(((S)-1-(1H-tetrazol-1-yl)propan-2-yl)oxy)-4-(2-((1-(cis-4-(azetidin-1-yl)cyclohexyl)-3-(trifluoromethyl)-1H-pyrazol-4-yl)amino)pyrimidin-5-yl)benzonitrile]
IC50 [2]: < 10 nM

COc1ccc(C(=O)N2CCN(C)CC2)cc1Nc1ncc(-c2ccc(Cl)c(O[C@@H](C)Cn3cnnn3)c2)cn1 [Example 569, (S)-(3-((5-(3-((1-(1H-tetrazol-1-yl)propan-2-yl)oxy)-4-chlorophenyl)pyrimidin-2-yl)amino)-4-methoxyphenyl) (4-methylpiperazin-1-yl)methanone]
IC50 [3]: < 10 nM

CC(C)c1nn(C2CCC(=O)CC2)cc1Nc1ncc(-c2ccc(Cl)c(O[C@@H](C)Cn3cnnn3)c2)cn1 [Example 841, (S)-4-(4-((5-(3-((1-(1H-tetrazol-1-yl)propan-2-yl)oxy)-4-chlorophenyl)pyrimidin-2-yl)amino)-3-isopropyl-1H-pyrazol-1-yl)cyclohexan-1-one]
IC50 [2]: < 10 nM

C[C@@H](Cn1cnnn1)Oc1cc(-c2cnc(Nc3cn(C4CCC(O)CC4)nc3C(F)(F)F)nc2)ccc1Cl (stereo partly drawn) [Example 670, (S)-4-(4-((5-(3-((1-(1H-tetrazol-1-yl)propan-2-yl)oxy)-4-chlorophenyl)pyrimidin-2-yl)amino)-3-(trifluoromethyl)-1H-pyrazol-1-yl)cyclohexan-1-ol]
IC50 [4]: 10 to 100 nM

C[C@@H](Cn1cnnn1)Oc1cc(-c2cnc(Nc3cc(N4CC(N5CCOCC5)C4)ncc3OC(F)(F)F)nc2)ccc1Cl [Example 627, (S)-5-(3-((1-(1H-tetrazol-1-yl)propan-2-yl)oxy)-4-chlorophenyl)-N-(2-(3-morpholinoazetidin-1-yl)-5-(trifluoromethoxy)pyridin-4-yl)pyrimidin-2-amine]
IC50 [4]: 10 to 100 nM

COc1cc2c(cc1Nc1ncc(-c3ccc(Cl)c(O[C@@H](C)Cn4cnnn4)c3)cn1)CN(C(=O)C(C)(C)OC(C)=O)CC2 [Example 520, (S)-1-(7-((5-(3-((1-(1H-tetrazol-1-yl)propan-2-yl)oxy)-4-chlorophenyl)pyrimidin-2-yl)amino)-6-methoxy-3,4-dihydroisoquinolin-2(1H)-yl)-2-methyl-1-oxopropan-2-yl acetate]
IC50 [3]: ≥ 100 nM

Cc1ncc(N2CCC(N3CCOCC3)CC2)cc1Nc1ncc(-c2ccc(Cl)c(O[C@@H](C)Cn3cnnn3)c2)cn1 [Example 462, (S)-5-(3-((1-(1H-tetrazol-1-yl)propan-2-yl)oxy)-4-chlorophenyl)-N-(2-methyl-5-(4-morpholinopiperidin-1-yl)pyridin-3-yl)pyrimidin-2-amine]
IC50 [3]: < 10 nM

C[C@@H](Cn1cnnn1)Oc1cc(-c2cnc(Nc3cn([C@H]4CC[C@H](N5CC(C)(O)C5)CC4)nc3OCC(F)(F)F)nc2)ccc1Cl [Example 802, 1-(trans-4-(4-((5-(3-(((S)-1-(1H-tetrazol-1-yl)propan-2-yl)oxy)-4-chlorophenyl)pyrimidin-2-yl)amino)-3-(2,2,2-trifluoroethoxy)-1H-pyrazol-1-yl)cyclohexyl)-3-methylazetidin-3-ol]
IC50 [2]: < 10 nM

COc1cnc(N2CCCC(N3CCOCC3)C2)cc1Nc1ncc(-c2ccc(Cl)c(O[C@@H](C)Cn3cnnn3)c2)cn1 (stereo partly drawn) [Example 457, 5-(3-(((S)-1-(1H-tetrazol-1-yl)propan-2-yl)oxy)-4-chlorophenyl)-N-(5-methoxy-2-(3-morpholinopiperidin-1-yl)pyridin-4-yl)pyrimidin-2-amine]
IC50 [3]: 10 to 100 nM

C[C@@H](Cn1cnnn1)Oc1cc(-c2cnc(Nc3cn(CCOCCO)nc3C(F)(F)F)nc2)ccc1Cl [Example 620, (S)-2-(2-(4-((5-(3-((1-(1H-tetrazol-1-yl)propan-2-yl)oxy)-4-chlorophenyl)pyrimidin-2-yl)amino)-3-(trifluoromethyl)-1H-pyrazol-1-yl)ethoxy)ethan-1-ol]
IC50 [4]: 10 to 100 nM

COC(=O)c1ccc(OC)c(Nc2ncc(-c3ccc(Cl)c(O[C@@H](C)Cn4cnnn4)c3)cn2)c1 [Example 526, methyl (S)-3-((5-(3-((1-(1H-tetrazol-1-yl)propan-2-yl)oxy)-4-chlorophenyl)pyrimidin-2-yl)amino)-4-methoxybenzoate]
IC50 [3]: 10 to 100 nM

C[C@@H](Cn1cnnn1)Oc1cc(-c2cnc(Nc3cn(CCNC(N)=O)nc3C(F)(F)F)nc2)ccc1Cl [Example 887, (S)-1-(2-(4-((5-(3-((1-(1H-tetrazol-1-yl)propan-2-yl)oxy)-4-chlorophenyl)pyrimidin-2-yl)amino)-3-(trifluoromethyl)-1H-pyrazol-1-yl)ethyl)urea]
IC50 [1]: 10 to 100 nM
